Literature values, collected in patent publication US20040253327A1, “Compositions and methods for reducing or controlling blood cholesterol, lipoproteins, triglycerides, and sugar and preventing or treating cardiovascular diseases” (priority 2003, published 2004).

How the values were obtained:
[1] = human, in vivo

patients developing gastrointestinal complaints [1] | Molecule | reduction of blood triglyceride and LDL cholesterol levels [1] | triglyceride level (after 2 months of supplementation (vs. 161 mg/dl)) [mg/dL] | reduction in triglyceride levels (supplementation for 2 months, P<0.05) [%]
Up to 30% | CN(C)C(=N)N=C(N)N [metformin] | about 10% |  | 
 | chromium picolinate |  | 133 | 17.4
